Reference: patent US20010044151A1, “Ligands for modulating the expression of exogenous genes via an ecdysone receptor complex” (priority 1998, published 2001)

Target: T1, VgEcR and RXR heterodimeric receptor (pVgRXR) with pIND/luc in CHO cells (Drosophila melanogaster, UniProt P34021, E282G/G283S/G286V)
T1 construct: host or cells: CHO cells (ATCC CCL-61), transiently transfected or stably transformed with pVgRXR
T1 sequence (P34021 1-878 E282G/G283S/G286V): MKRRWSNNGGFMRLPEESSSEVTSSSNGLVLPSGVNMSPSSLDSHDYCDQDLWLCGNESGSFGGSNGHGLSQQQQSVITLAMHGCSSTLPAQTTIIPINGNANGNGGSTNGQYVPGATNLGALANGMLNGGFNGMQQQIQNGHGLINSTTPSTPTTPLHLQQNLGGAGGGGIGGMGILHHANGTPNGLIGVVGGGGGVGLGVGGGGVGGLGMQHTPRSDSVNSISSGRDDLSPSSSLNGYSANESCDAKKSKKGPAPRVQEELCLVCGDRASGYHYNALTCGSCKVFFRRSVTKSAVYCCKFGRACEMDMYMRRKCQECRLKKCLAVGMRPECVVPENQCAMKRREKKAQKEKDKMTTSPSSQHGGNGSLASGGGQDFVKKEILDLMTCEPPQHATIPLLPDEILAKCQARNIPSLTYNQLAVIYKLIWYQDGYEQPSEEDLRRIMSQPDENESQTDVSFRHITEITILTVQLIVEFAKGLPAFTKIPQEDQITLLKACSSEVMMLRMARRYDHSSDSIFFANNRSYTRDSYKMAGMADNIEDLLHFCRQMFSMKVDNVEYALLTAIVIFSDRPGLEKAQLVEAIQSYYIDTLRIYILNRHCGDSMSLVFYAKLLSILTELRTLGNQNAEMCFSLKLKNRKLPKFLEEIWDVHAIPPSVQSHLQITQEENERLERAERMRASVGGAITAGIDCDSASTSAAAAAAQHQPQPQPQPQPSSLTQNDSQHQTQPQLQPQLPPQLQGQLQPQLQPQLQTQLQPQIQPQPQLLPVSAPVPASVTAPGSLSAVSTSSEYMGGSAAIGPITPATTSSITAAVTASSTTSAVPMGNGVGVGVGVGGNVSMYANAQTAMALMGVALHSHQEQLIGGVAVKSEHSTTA
T1 sequence (P19793 1-462 partner): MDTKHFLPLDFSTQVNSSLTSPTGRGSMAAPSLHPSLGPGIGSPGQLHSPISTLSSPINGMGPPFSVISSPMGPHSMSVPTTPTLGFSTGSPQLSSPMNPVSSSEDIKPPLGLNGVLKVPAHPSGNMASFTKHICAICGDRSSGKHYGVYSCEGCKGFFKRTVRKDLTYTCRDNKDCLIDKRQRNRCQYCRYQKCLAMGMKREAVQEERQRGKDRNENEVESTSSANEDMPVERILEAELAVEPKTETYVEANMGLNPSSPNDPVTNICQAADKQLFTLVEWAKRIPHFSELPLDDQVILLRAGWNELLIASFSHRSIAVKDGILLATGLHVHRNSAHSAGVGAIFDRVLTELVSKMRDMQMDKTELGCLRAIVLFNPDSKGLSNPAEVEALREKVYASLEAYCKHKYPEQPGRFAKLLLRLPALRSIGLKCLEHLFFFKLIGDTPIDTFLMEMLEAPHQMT
Test: Luciferase gene activation in transiently transfected CHO cells
Assay type: cell-based
Settings: ligand 10 μM; for Luciferase activity: average of duplicate samples, no ligand = 42; for Induction Ratio (RLU in presence and absence of the ligand): luciferase
Text: pVgRXR (Invitrogen Corp., Carlsbad, Calif.) is an […] plasmid that expresses both VgEcR and RXR to form a modified heterodimeric nuclear receptor (see No, D., et. al., (1996) Proc. Natl. Acad. Sci. USA, 93, 3346-3351). The ecdysone receptor (VgEcR) is derived from the natural Drosophila ecdysone receptor and modified to contain the VP16 transactivation domain (see Cress, W. D., and Triezenberg, S. J. (1991), Science 251, 87-90; Sadowski, I., et. al (1988) Nature 335, 563-564; Triezenberg, S. J et. al., (1988), Genes Dev 2, 718-729; Triezenberg, S. J., et. al., (1988), Genes Dev 2, 730-742). RXR as the mammalian homologue of USP (ultraspiracle), the natural partner to the Drosophila ecdysone receptor (see Yao, T. -P., et. al., (1993), Nature 366, 476-479, Yao, T. -P., et. al., (1992), Cell 71, 63-72). The P-box region of the VgEcR DNA binding domain was modified to recognize the hybrid ecdysone response element that consists of one half-site from the gluccorticoid response element (see Umesono, K., and Evans, R. M. (1989), Cell 57, 1139-1146) and one half-site from the natural ecdysone response element. This hybrid response element reduces any possible interaction with the farsenoid X receptor that may bind the natural ecdysone responsive element (EcRE). The cytomegalovirus enhancer-promoter drives expression of VgEcR, and the Rous sarcoma virus promoter drives expression of RXR. The vector pIND (Invitrogen Corp) is a 5024 bp vector based on pcDNA3.1. It contains five hybrid E/GREs recognized by the modified ecdysone receptor expressed from pVgRXR and a minimal heat shock promoter (see Yao, T. P., et. al., (1993), Nature, 366, 476-479). pIND/lacZ (Invitrogen Crop.) is a 8170 bp plasmid that contains the β-galactosidase gene as a reporter enzyme. Cotransfection of pIND/lacZ and pVgRXR results in the induction of β-galactosidase expression upon addition of ecdysone agonists such as muristerone A. The reporter plasmid pIND/luc was constructed by subcloning the firefly luciferase gene from pGL3 (Promega/E1741) as a Nhe I-BamHI fragment into pIND, also digested with Nhe I and BamHI.
CHO cells (ATCC #CCL-61) were maintained by F-12 Nutrient mixture (Ham's media) (Gibco/BRL, 11765-054) supplemented with 10% fetal bovine serum, (FBS, complete medium; Gibco/BRL, 16000-036). These cells were maintained at 37° C. in 5% CO2 in 95% atmospheric air.
The CHO cells were seeded into 12-well tissue culture plates at a concentration of 0.5×10^5 cells per ml per well. The lipid Pfx-8 (Invitrogen, T930-18) was used to transiently transfect the ecdysone inducible expression system (Invitrogen catalog number K1000-01). The ecdysone inducible expression system consists of pVgRXR, encoding the receptor subunits, and pIND/lacZ or pIND/luc, containing the response element and a reporter gene encoding β-galactosidase or luciferase respectively. Twenty-four hours after seeding cells, the lipid/DNA solution was prepared by 0.5 mg/ml of VgRXR and 0.5 mg/ml pIND/lacZ or pIND/luc DNAs in sterile water. Thirty-six μl of Pfx-8 was diluted in a sterile 17×100 mm polystyrene tube containing 1.5 ml Opti-MEM medium (Gibco/BRL, 31985). Six μl of the plasmid DNA stock was mixed with 1.5 ml of Opti-MEM medium in another polystyrene tube. The DNA and the lipid solutions were combined to make 3 ml of transfection solution (enough for one set of triplicate samples). Cells were washed with phosphate buffered solution (PBS; Gibco/BRL, 14190-144) three times by aspirating medium from the cells. One ml transfection solution was added per well. Cells were incubated for four hours, and the transfection medium replaced with the same volume of complete medium. Cells were incubated for an additional 20 hours.
Stock solutions (10^−2 M) were prepared for muristerone A and the non-steroidal ligands of the present invention in ethanol and acetone respectively, and stored at −20° C. […]

Compound: CCc1c(OC)cccc1C(=O)NN(C(=O)c1cc(C)cc(C)c1)C(C)(C)C [Ligand 5]
- Luciferase activity: 313 RLU
- Induction Ratio (RLU in presence and absence of the ligand): 8

Compound: Cc1cc(C)cc(C(=O)N(NC(=O)c2ccc3c(c2C)OCCO3)C(C)(C)C)c1 [Ligand 2]
- Luciferase activity: 204 RLU
- Induction Ratio (RLU in presence and absence of the ligand): 5

Compound: CC(C)CC[C@@H](O)[C@](C)(O)[C@H]1CC[C@@]2(O)C3=CC(=O)[C@]4(O)C[C@@H](O)[C@@H](O)C[C@]4(C)[C@H]3[C@H](O)C[C@]12C [CE-3, muristerone A, reference compound]
- Luciferase activity: 316 RLU
- Induction Ratio (RLU in presence and absence of the ligand): 8

Compound: CCc1c(OC)cccc1C(=O)NN(C(=O)c1cc(F)cc(F)c1)C(C)(C)C [Ligand 4]
- Luciferase activity: 251 RLU
- Induction Ratio (RLU in presence and absence of the ligand): 6

Compound: COc1cccc(C(=O)NN(C(=O)c2cc(C)cc(C)c2)C(C)(C)C)c1C [Ligand 3]
- Luciferase activity: 324 RLU
- Induction Ratio (RLU in presence and absence of the ligand): 8

Compound: CCc1c(OC)cccc1C(=O)NN(C(=O)c1cccc(OC)c1)C(C)(C)C [Ligand 1]
- Luciferase activity: 275 RLU
- Induction Ratio (RLU in presence and absence of the ligand): 7

Compound: CCc1ccc(C(=O)NN(C(=O)c2cc(C)cc(C)c2)C(C)(C)C)cc1 [CE-1, N-(4-ethylbenzoyl)-N′-(3,5-dimethylbenzoyl)-N′-tert-butyl-hydrazine, reference compound]
- Luciferase activity: 89 RLU
- Induction Ratio (RLU in presence and absence of the ligand): 2

Compound: CCOc1cccc(C(=O)NN(C(=O)c2cc(C)cc(C)c2)C(C)(C)C)c1CC [Ligand 12]
- Luciferase activity: 305 RLU
- Induction Ratio (RLU in presence and absence of the ligand): 7

Compound: CC(C)(C)N(NC(=O)c1ccccc1)C(=O)c1ccccc1 [CE-2, 1,2-dibenzoyl-1-tert-butyl-hydrazine, reference compound]
- Luciferase activity: 36 RLU
- Induction Ratio (RLU in presence and absence of the ligand): 1

Compound: CCc1c(OC)cccc1C(=O)NN(C(=O)c1cc(Cl)cc(Cl)c1)C(C)(C)C [Ligand 13]
- Luciferase activity: 226 RLU
- Induction Ratio (RLU in presence and absence of the ligand): 5

Compound: CC(C)CC[C@@H](O)[C@](C)(O)[C@H]1CC[C@@]2(O)C3=CC(=O)[C@@H]4C[C@@H](O)[C@@H](O)C[C@]4(C)[C@H]3CC[C@]12C [CE-4, ponasterone A, reference compound]
- Luciferase activity: 418 RLU
- Induction Ratio (RLU in presence and absence of the ligand): 10
